Consider 12 compounds from article PMC5855875, “Teixobactin analogues reveal enduracididine to be non-essential for highly potent antibacterial activity and lipid II binding” (Chemical Science, 2017).

Values after ≈ are worked out from the molar mass of the structure shown. Bridge positions count the residues as written; N and C are the ends. Square brackets hold non-standard residues; d marks the D form. Peptide text beside a SMILES is read from it. d(aIle) = CC[C@H](C)[C@@H](N)C(=O)O; dNMeF = CN[C@H](Cc1ccccc1)C(=O)O

Experiment [1] concerns MRSA ATCC 33591. As to the kind of experiment: microbe, parasite or virus in culture. The note with it: for times lower antibacterial activity than Arg10-teixobactin: from MIC against MRSA ATCC 33591. The protocol: were grown in Mueller Hinton broth (Oxoid) in triplicate. All incubations were at 37°C. Dilutions were carried out in triplicate. 100 µl of autoclaved Mueller Hinton broth was added to wells 2-12 in a 96-well plate. 200 µl of the peptide was added to well one at a concentration of 256 µg/mL. 100µl of peptide in well one was taken up and pipetted into well two. The mixture was then mixed via pipetting before 100µl was taken up and pipetted into well three. This process was repeated up to well 11. Once […]
peptide present. Thus, the concentrations (in µg/mL) were: 256, 128, 64, 32, 16, 8, 4, 2, 1, 0.5, 0.25 and no peptide present. Each well was then inoculated with 100µl of bacteria that had been diluted to an […]
This was repeated three times. The 96-well plates were then incubated at 37°C for 24 hours. The MIC was determined to be the lowest concentration at which there was no growth visible. […]
was repeated at an altered initial concentration of 64 µg/ml. Therefore, the new concentrations for MIC […]
(§1) VIII. MIC testing (extended panel)
(§2) Bacterial cultures were grown overnight i n Mueller-Hinton Agar (MHA) plates and adjusted to a final concentration of 10 5 – 106 CFU/ml. 100 µl of inoculum in Meuller -Hinton broth (MHB) was mixed with equal volume of peptides (dissolved in MHB) at 2x their concentration in a 96 well plate. In parallel experiments, MIC values were determined in the media containing polysorbate 80 (0 .002%, v/v) to […]

Experiment [2] relates to VRE 2: VRE ATCC 29212. As to the kind of experiment: organism not typed. The note with it: VRE 2; MHB containing polysorbate 80 (0.002%, v/v); 37 °C, 24 h. The protocol:
as §1, §2
(§3) prevent non-specific adsorption of the peptides to plastic surfaces. The final peptides concentrations […]
(§4) Positive and negative controls contained 200 µl of inoculum without any peptide dissolved in broth, respectively. The 96 well plates were then incubated at 37 °C for 24 h. […]
(§5) 80. Strain information: MRSA 1: MRSA ATCC 700699, MRSA 2: MRSA DR 42412 (sputum), MRSA
(§6) 3: MRSA DM21455 (eye). […] Staphylococcus aureus ATCC

Experiment [3] concerns VRE 1: VRE ATCC 700802. As to the kind of experiment: organism not typed. The note with it: VRE 1; MHB containing polysorbate 80 (0.002%, v/v); 37 °C, 24 h. The protocol:
as §1, §2, §3, §4, §5, §6

The subject of experiment [4] is MRSA 2: MRSA DR 42412 (sputum). As to the kind of experiment: microbe, parasite or virus in culture. Conditions: MRSA 2; MHB containing polysorbate 80 (0.002%, v/v); 37 °C, 24 h. On the procedure:
as §1, §2, §3, §4, §5, §6

Experiment [5] has as its system MRSA 3: MRSA DM21455 (eye). As to the kind of experiment: microbe, parasite or virus in culture. Conditions: MRSA 3; MHB containing polysorbate 80 (0.002%, v/v); 37 °C, 24 h. The protocol:
as §1, §2, §3
(§7) Positive and negative controls contained 200 µl of inoculum without any peptide dissolved in broth, respectively. The 96 well plates were then incubated at 37 °C for 24 h.
(§8) All the experiments were performed in two independent duplicates and the MIC was determined as the […]
(§9) Minimum bactericidal concentration
(§10) The lowest concentration in which no visible colonies could be detected was taken as the MBC.
as §5, §6

Experiment [6] concerns Staphylococcus aureus ATCC 29213. As to the kind of experiment: microbe, parasite or virus in culture. Conditions: S. aureus ATCC 29213; MHB containing polysorbate 80 (0.002%, v/v); 37 °C, 24 h. The protocol: as §1, §2, §3, §7, §8, §9, §10, §5, §6
Experiment [7] has as its system MRSA 1: MRSA ATCC 700699. As to the kind of experiment: microbe, parasite or virus in culture. Conditions: MRSA 1; MHB containing polysorbate 80 (0.002%, v/v); 37 °C, 24 h; two independent duplicates. The protocol:
as §1, §2, §3, §7, §8, §9, §10, §5, §6

Take `CC[C@H](C)[C@H](NC(=O)[C@@H](Cc1ccccc1)NC)C(=O)N[C@@H](CO)C(=O)N[C@H](CCC(N)=O)C(=O)N[C@@H](C(=O)N[C@H](C(=O)N[C@@H](CO)C(=O)N[C@H]1C(=O)N[C@@H](C)C(=O)N[C@@H](Cc2ccccc2)C(=O)N[C@@H]([C@@H](C)CC)C(=O)O[C@H]1C)[C@@H](C)CC)[C@@H](C)CC` [Compound 15, Phe10-teixobactin] (H-[dNMeF]IS[dQ][d(aIle)]IS[dT]AFI; ester 8-C): the MIC in experiment [1] (ATCC 33591, 24 h) was found to be 2 μg mL^–1.

As to `CC[C@H](C)[C@H](NC(=O)[C@@H](C)NC(=O)[C@@H](CCC(N)=O)NC(=O)[C@H](CO)NC(=O)[C@@H](NC(=O)[C@@H](Cc1ccccc1)NC)[C@@H](C)CC)C(=O)N[C@@H](CO)C(=O)N[C@H]1C(=O)N[C@@H](C)C(=O)N[C@@H](CCCNC(=N)N)C(=O)N[C@@H]([C@@H](C)CC)C(=O)O[C@H]1C` [Compound 5, D-Ala5-Arg10-teixobactin] (HELM PEPTIDE1{[CN[C@H](Cc1ccccc1)C(=O)[*:2]].I.S.[dQ].[dA].I.S.[C[C@H](O[*:3])[C@@H](N[*:1])C(=O)[*:2]].A.R.I}$PEPTIDE1,PEPTIDE1,8:R3-11:R2$$$V2.0), the MIC in experiment [1] (ATCC 33591, 24 h) was 64–128 μg mL^–1.

In the case of `CC[C@H](C)[C@H](NC(=O)[C@@H](Cc1ccccc1)NC)C(=O)N[C@@H](CO)C(=O)N[C@H](CCC(N)=O)C(=O)N[C@@H](C(=O)N[C@H](C(=O)N[C@@H](CO)C(=O)N[C@H]1C(=O)N[C@@H](C)C(=O)NCC(=O)N[C@@H]([C@@H](C)CC)C(=O)O[C@H]1C)[C@@H](C)CC)[C@@H](C)CC` [Compound 10, Gly10-teixobactin] (H-[dNMeF]IS[dQ][d(aIle)]IS[dT]AGI; ester 8-C), the MIC in experiment [1] (ATCC 33591, 24 h) was 2 μg mL^–1.

`CC[C@H](C)[C@H](NC(=O)[C@@H](Cc1ccccc1)NC)C(=O)N[C@@H](CO)C(=O)N[C@H](CCC(N)=O)C(=O)N[C@@H](C(=O)N[C@H](C(=O)N[C@@H](CO)C(=O)N[C@H]1C(=O)N[C@@H](C)C(=O)N[C@H](C)C(=O)N[C@@H]([C@@H](C)CC)C(=O)O[C@H]1C)[C@@H](C)CC)[C@@H](C)CC` [Compound 9, D-Ala10-teixobactin] (H-[dNMeF]IS[dQ][d(aIle)]IS[dT]A[dA]I; ester 8-C) registered an MIC in experiment [1] (ATCC 33591, 24 h) of 32 μg mL^–1. In addition, the “times lower antibacterial activity than Arg10-teixobactin” value in experiment [1] was found to be 16 times.

Turning to `CC[C@H](C)[C@H](NC(=O)[C@@H](Cc1ccccc1)NC)C(=O)N[C@@H](CO)C(=O)N[C@H](CCC(N)=O)C(=O)N[C@@H](C(=O)N[C@@H](C)C(=O)N[C@@H](CO)C(=O)N[C@H]1C(=O)N[C@@H](C)C(=O)N[C@@H](CCCNC(=N)N)C(=O)N[C@@H]([C@@H](C)CC)C(=O)O[C@H]1C)[C@@H](C)CC` [Compound 6, Ala6-Arg10-teixobactin] (H-[dNMeF]IS[dQ][d(aIle)]AS[dT]ARI; ester 8-C), the MIC in experiment [1] (ATCC 33591, 24 h) is listed as >128 μg mL^–1.

As to `CC[C@H](C)[C@H](NC(=O)[C@@H](Cc1ccccc1)NC)C(=O)N[C@@H](CO)C(=O)N[C@H](CCC(N)=O)C(=O)N[C@@H](C(=O)N[C@H](C(=O)N[C@@H](C)C(=O)N[C@H]1C(=O)N[C@@H](C)C(=O)N[C@@H](CCCNC(=N)N)C(=O)N[C@@H]([C@@H](C)CC)C(=O)O[C@H]1C)[C@@H](C)CC)[C@@H](C)CC` [Compound 7, Ala7-Arg10-teixobactin] (H-[dNMeF]IS[dQ][d(aIle)]IA[dT]ARI; ester 8-C), the MIC in experiment [1] (ATCC 33591, 24 h) is given as 16–32 μg mL^–1.

Consider `CC[C@H](C)[C@H](NC(=O)[C@@H](Cc1ccccc1)NC)C(=O)N[C@@H](CO)C(=O)N[C@H](C)C(=O)N[C@@H](C(=O)N[C@H](C(=O)N[C@@H](CO)C(=O)N[C@H]1C(=O)N[C@@H](C)C(=O)N[C@@H](CCCNC(=N)N)C(=O)N[C@@H]([C@@H](C)CC)C(=O)O[C@H]1C)[C@@H](C)CC)[C@@H](C)CC` [Compound 4, D-Ala4-Arg10-teixobactin] (H-[dNMeF]IS[dA][d(aIle)]IS[dT]ARI; ester 8-C), for which the MIC in experiment [1] (ATCC 33591, 24 h) is 2–4 μg mL^–1.

In turn, `CC[C@H](C)[C@H](NC(=O)[C@@H](Cc1ccccc1)NC)C(=O)N[C@@H](CO)C(=O)N[C@H](CCC(N)=O)C(=O)N[C@@H](C(=O)N[C@H](C(=O)N[C@@H](CO)C(=O)N[C@H]1C(=O)N[C@@H](C)C(=O)N[C@@H](CO)C(=O)N[C@@H]([C@@H](C)CC)C(=O)O[C@H]1C)[C@@H](C)CC)[C@@H](C)CC` [Compound 14, Ser10-teixobactin] (H-[dNMeF]IS[dQ][d(aIle)]IS[dT]ASI; ester 8-C) came in with an MIC in experiment [1] (MRSA ATCC 33591, Mueller Hinton broth (Oxoid), peptides in DMSO containing 0.002% polysorbate 80, 37°C, 24 h, triplicate) of 16 μg mL^–1. Also, in experiment [1], the “times lower antibacterial activity than Arg10-teixobactin” value was 8 times.

`CC[C@H](C)[C@H](NC(=O)[C@@H](Cc1ccccc1)NC)C(=O)N[C@@H](C)C(=O)N[C@H](CCC(N)=O)C(=O)N[C@@H](C(=O)N[C@H](C(=O)N[C@@H](CO)C(=O)N[C@H]1C(=O)N[C@@H](C)C(=O)N[C@@H](CCCNC(=N)N)C(=O)N[C@@H]([C@@H](C)CC)C(=O)O[C@H]1C)[C@@H](C)CC)[C@@H](C)CC` [Compound 3, Ala3-Arg10-teixobactin] (H-[dNMeF]IA[dQ][d(aIle)]IS[dT]ARI; ester 8-C): the MIC in experiment [1] (ATCC 33591, 24 h) is recorded as 1–2 μg mL^–1.

Turning to `CC[C@H](C)[C@H](NC(=O)[C@H](NC(=O)[C@@H](CCC(N)=O)NC(=O)[C@H](CO)NC(=O)[C@H](C)NC(=O)[C@@H](Cc1ccccc1)NC)[C@@H](C)CC)C(=O)N[C@@H](CO)C(=O)N[C@H]1C(=O)N[C@@H](C)C(=O)N[C@@H](CCCNC(=N)N)C(=O)N[C@@H]([C@@H](C)CC)C(=O)O[C@H]1C` [Compound 2, Ala2-Arg10-teixobactin] (H-[dNMeF]AS[dQ][d(aIle)]IS[dT]ARI; ester 8-C), in experiment [1] (ATCC 33591, 24 h), the MIC is recorded as >128 μg mL^–1.

With `CC[C@H](C)[C@H](NC(=O)[C@@H](C)NC(C)=O)C(=O)N[C@@H](CO)C(=O)N[C@H](CCC(N)=O)C(=O)N[C@@H](C(=O)N[C@H](C(=O)N[C@@H](CO)C(=O)N[C@H]1C(=O)N[C@@H](C)C(=O)N[C@@H](CCCNC(=N)N)C(=O)N[C@@H]([C@@H](C)CC)C(=O)O[C@H]1C)[C@@H](C)CC)[C@@H](C)CC` [Compound 1, Ac-D-Ala1-Arg10-teixobactin], in experiment [1] (ATCC 33591, 24 h), the MIC is on record as >128 μg mL^–1.

Take `CCCCCCCCCC(=O)N[C@@H](Cc1c[nH]c2ccccc12)C(=O)N[C@H](CC(N)=O)C(=O)N[C@@H](CC(=O)O)C(=O)N[C@@H]1C(=O)NCC(=O)N[C@@H](CCCN)C(=O)N[C@@H](CC(=O)O)C(=O)N[C@H](C)C(=O)N[C@@H](CC(=O)O)C(=O)NCC(=O)N[C@H](CO)C(=O)N[C@@H]([C@H](C)CC(=O)O)C(=O)N[C@@H](CC(=O)c2ccccc2N)C(=O)O[C@@H]1C` [Daptomycin, reference compound]: the “MIC (with polysorbate 80)” value is given as 0.5 µg/mL (≈ 0.309 µM) in experiment [2]; 0.5 µg/mL (≈ 0.309 µM) in experiment [3]; 0.5 µg/mL (≈ 0.309 µM) in experiment [4]; 0.5 µg/mL (≈ 0.309 µM) in experiment [5]; 0.25 µg/mL (≈ 0.154 µM) in experiment [6]; 0.5 µg/mL (≈ 0.309 µM) in experiment [7].
